# Laboratory results from BindingDB's records for PubMed 35063633 (Kumamoto University, 2022).
# Experiments:
# [1] = Inhibition of human constitutive proteasome subunit beta type-2 in human erythrocytes using fluorogenic substrate by […]
# [2] = Inhibition of human constitutive proteasome subunit beta type-1 in human erythrocytes using fluorogenic substrate by […]
IC50 [1] [µM],IC50 [2] [µM],SMILES
> 50,19,CCC(C)/C=C(\C)C1=Cc2cc3c(c(O)c2CO1)C(=O)C(O)(CC(C)=O)C(OC)=C3 (stereo unspecified)
42,17,CCC(C)/C=C(\C)c1cc2c(cn1)C(=O)C1=C(N)C(=O)C(OC)=CC1=C2 (stereo unspecified)
> 50,> 50,CCC(C)/C=C(\C)c1cc2c(cn1)C(=O)c1c(cc(OC)c(O)c1O)C2=O (stereo unspecified)
